Test results published in PubChem BioAssay AID330 (DTP/NCI, 2004).
Toxic doses and inconclusive results are not listed. How the source made its calls: active means survival T/C of 150% or more; inactive means T/C below 125% in these data.

System: P388 leukemia ip, CD2F1 mice, survival T/C
Assay: NCI In Vivo Anticancer Drug Screen. Data for tumor model P388 Leukemia (intraperitoneal) in CD2F1 (CDF1) mice
Conditions: endpoint: median survival time, higher = longer survival
Procedure, shortened: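 Mice carrying the transplanted tumor received test compound or vehicle. Survival was recorded in each group, and the value is the treated-group measurement divided by that of the vehicle-treated control group.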

[1] = dose: 100.0 mg/kg/injection, schedule: Q04DX003 (ip), vehicle: Klucel (hydroxypropylcellulose) (HPC)
[2] = dose: 200.0 mg/kg/injection, schedule: Q04DX003 (ip), vehicle: Klucel (hydroxypropylcellulose) (HPC)
[3] = dose: 400.0 mg/kg/injection, schedule: Q04DX003 (ip), vehicle: Klucel (hydroxypropylcellulose) (HPC)
[4] = dose: 50.0 mg/kg/injection, schedule: Q01DX009 (ip), vehicle: Klucel (hydroxypropylcellulose) (HPC)

Measured: T/C

S=C(Nc1ccccc1)Nc1ccc(N(CCCl)CCCl)cc1
inactive: [1] 106 % of control | [2] 114 % of control | [3] 111 % of control

COc1ccc(C2NC(=S)NC(C)=C2C(N)=O)cc1 (stereo unspecified)
inactive: dose: 60.0 mg/kg/injection, schedule: Q01DX005 (ip), vehicle: Klucel (hydroxypropylcellulose) (HPC) 101 % of control | dose: 120.0 mg/kg/injection, schedule: Q01DX005 (ip), vehicle: Klucel (hydroxypropylcellulose) (HPC) 95 % of control | dose: 240.0 mg/kg/injection, schedule: Q01DX005 (ip), vehicle: Klucel (hydroxypropylcellulose) (HPC) 96 % of control

CC(=O)O[C@@]1(C)OC(=O)[C@@]2(c3ccccc3)N(C(C)=O)C(C)=C(C#N)[C@@]12C#N
inactive: dose: 50.0 mg/kg/injection, schedule: Q01DX005 (ip), vehicle: saline with Tween-80 100 % of control | dose: 100.0 mg/kg/injection, schedule: Q01DX005 (ip), vehicle: saline with Tween-80 106 % of control | dose: 200.0 mg/kg/injection, schedule: Q01DX005 (ip), vehicle: saline with Tween-80 97 % of control

CC1=CC(=O)C(O)C2(C)C1CC1OC(=O)C(OC(=O)c3ccccc3)C3(O)C4(C)OCC13C2C(O)C4O (stereo unspecified)
inactive: dose: 0.75 mg/kg/injection, schedule: Q01DX005 (ip), vehicle: saline + alcohol 101 % of control | dose: 1.5 mg/kg/injection, schedule: Q01DX005 (ip), vehicle: saline + alcohol 101 % of control | dose: 3.0 mg/kg/injection, schedule: Q01DX005 (ip), vehicle: saline + alcohol 108 % of control | dose: 6.0 mg/kg/injection, schedule: Q01DX005 (ip), vehicle: saline + alcohol 105 % of control

O=C1CN(CCN2CCOCC2)CC(=O)N2CCCCN12
inactive: dose: 50.0 mg/kg/injection, schedule: Q01DX005 (ip), vehicle: saline 99 % of control | dose: 100.0 mg/kg/injection, schedule: Q01DX005 (ip), vehicle: saline 102 % of control | dose: 200.0 mg/kg/injection, schedule: Q01DX005 (ip), vehicle: saline 107 % of control

O=C(O)c1ccc(NC(=S)NNC(=O)c2ccncc2)cc1
inactive: dose: 100.0 mg/kg/injection, schedule: Q04DX002 (ip), vehicle: Klucel (hydroxypropylcellulose) (HPC) 99 % of control | dose: 200.0 mg/kg/injection, schedule: Q04DX002 (ip), vehicle: Klucel (hydroxypropylcellulose) (HPC) 102 % of control | dose: 400.0 mg/kg/injection, schedule: Q04DX002 (ip), vehicle: Klucel (hydroxypropylcellulose) (HPC) 100 % of control

CC12CCC(c3sc(N)c(C#N)c31)C2(C)C (stereo unspecified)
inactive: dose: 12.5 mg/kg/injection, schedule: Q01DX009 (ip), vehicle: Klucel (hydroxypropylcellulose) (HPC) 114 % of control | dose: 25.0 mg/kg/injection, schedule: Q01DX009 (ip), vehicle: Klucel (hydroxypropylcellulose) (HPC) 104 % of control | [4] 104 % of control

O=C(Nc1ccccc1)Nc1ccccc1C(=O)O
inactive: dose: 50.0 mg/kg/injection, schedule: Q04DX003 (ip), vehicle: Klucel (hydroxypropylcellulose) (HPC) 100 % of control | [1] 107 % of control | [2] 109 % of control | [3] 93 % of control

c1ccc2c(c1)Nc1ccccc1C1CC21 (stereo unspecified)
inactive: dose: 50.0 mg/kg/injection, schedule: Q01DX009 (ip), vehicle: saline with Tween-80 96 % of control | dose: 100.0 mg/kg/injection, schedule: Q01DX009 (ip), vehicle: saline with Tween-80 99 % of control | dose: 200.0 mg/kg/injection, schedule: Q01DX009 (ip), vehicle: saline with Tween-80 92 % of control

c1ccc2c(c1)ccc1c(NCCCCCCNc3c4ccccc4nc4c3ccc3ccccc34)c3ccccc3nc12
inactive: [4] 93 % of control | dose: 100.0 mg/kg/injection, schedule: Q01DX009 (ip), vehicle: Klucel (hydroxypropylcellulose) (HPC) 96 % of control | dose: 200.0 mg/kg/injection, schedule: Q01DX009 (ip), vehicle: Klucel (hydroxypropylcellulose) (HPC) 105 % of control

Nc1nc(N)c2c(n1)CCCC2
inactive: dose: 6.25 mg/kg/injection, schedule: Q04DX003 (ip), vehicle: saline with Tween-80 105 % of control | dose: 12.5 mg/kg/injection, schedule: Q04DX003 (ip), vehicle: saline with Tween-80 100 % of control | dose: 25.0 mg/kg/injection, schedule: Q04DX003 (ip), vehicle: saline with Tween-80 100 % of control

CC(/C=N\Nc1ccc(C(=O)O)cc1)=N/N(C)C
inactive: dose: 100.0 mg/kg/injection, schedule: Q04DX003 (ip), vehicle: saline 101 % of control | dose: 200.0 mg/kg/injection, schedule: Q04DX003 (ip), vehicle: saline 98 % of control | dose: 400.0 mg/kg/injection, schedule: Q04DX003 (ip), vehicle: saline 101 % of control

COc1cc(C2CC(C)(O)Oc3cc4c(cc32)OCO4)cc(OC)c1O (stereo unspecified)
inactive: dose: 60.0 mg/kg/injection, schedule: Q01DX005 (ip), vehicle: saline with Tween-80 95 % of control | dose: 120.0 mg/kg/injection, schedule: Q01DX005 (ip), vehicle: saline with Tween-80 98 % of control | dose: 240.0 mg/kg/injection, schedule: Q01DX005 (ip), vehicle: saline with Tween-80 95 % of control
